Structures are written as SMILES. pIC50: −log10 of the molar value.

One test has as its target T1, Mer (Homo sapiens, UniProt Q12866).
T1 sequence (Q12866 21-999): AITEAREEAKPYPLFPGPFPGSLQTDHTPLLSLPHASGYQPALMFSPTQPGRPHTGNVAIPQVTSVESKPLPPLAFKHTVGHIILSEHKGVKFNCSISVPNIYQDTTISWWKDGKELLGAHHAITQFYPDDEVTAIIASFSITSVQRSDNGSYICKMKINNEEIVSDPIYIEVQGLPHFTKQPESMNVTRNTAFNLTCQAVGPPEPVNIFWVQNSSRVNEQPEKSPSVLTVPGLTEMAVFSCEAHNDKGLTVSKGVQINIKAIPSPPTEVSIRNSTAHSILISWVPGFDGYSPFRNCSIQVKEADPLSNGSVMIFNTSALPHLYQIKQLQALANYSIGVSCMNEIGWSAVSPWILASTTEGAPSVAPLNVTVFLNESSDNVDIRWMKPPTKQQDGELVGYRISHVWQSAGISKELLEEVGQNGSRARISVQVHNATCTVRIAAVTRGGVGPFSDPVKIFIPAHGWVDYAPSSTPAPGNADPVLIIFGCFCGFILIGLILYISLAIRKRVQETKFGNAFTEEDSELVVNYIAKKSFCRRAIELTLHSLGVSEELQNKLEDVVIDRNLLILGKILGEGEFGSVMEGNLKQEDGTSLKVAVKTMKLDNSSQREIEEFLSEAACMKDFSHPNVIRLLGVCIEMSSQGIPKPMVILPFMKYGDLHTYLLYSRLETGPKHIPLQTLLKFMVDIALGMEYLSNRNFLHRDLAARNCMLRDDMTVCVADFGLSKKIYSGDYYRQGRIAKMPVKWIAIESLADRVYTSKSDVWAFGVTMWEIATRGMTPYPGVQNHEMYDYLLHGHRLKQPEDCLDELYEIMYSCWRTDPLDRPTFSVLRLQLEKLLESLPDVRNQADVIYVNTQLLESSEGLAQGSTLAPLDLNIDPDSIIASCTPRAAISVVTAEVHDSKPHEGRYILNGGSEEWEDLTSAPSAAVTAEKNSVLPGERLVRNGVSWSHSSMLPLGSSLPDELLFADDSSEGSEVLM
The test is described as follows: Mer kinase inhibition IC50. Type of test: biochemical. The following applies: Table 2; read-out: Mer IC50.
One may read the pIC50 as the negative decadic logarithm of the IC50, by convention in mol/L. With `CN1CCC(c2ccc(Nc3ncc(-c4ccccn4)c(N[C@H]4CC[C@H](O)CC4)n3)cc2)CC1` [UNC5130A], the negative-log IC50 (pIC50) was 7.00 to 8.00.
The same measure, in the same setting: then `CN1CCCC(c2ccc(Nc3ncc(-c4ccccn4)c(N[C@H]4CC[C@H](O)CC4)n3)cc2)C1` (stereo partly drawn) [UNC5131A], with 7.00 to 8.00.

The same test, now with this note: Table 3; read-out: Mer IC50.
As to `Cc1cc(C#Cc2cc(NC(=O)C(C)C)ccn2)ccc1Nc1ncc(-c2ccc(CN3CCN(C)CC3)cc2)c(N[C@H]2CC[C@H](O)CC2)n1` [UNC4048A], the pIC50 is 7.00 to 8.00.

Still in this test, the particulars now being: Table 4; read-out: Mer IC50.
With `O[C@H]1CC[C@H](Nc2nc(Nc3ccc(C#Cc4cc(-c5ncc[nH]5)ccn4)cc3)ncc2-c2ccccn2)CC1` [UNC4357A], the pIC50 was 6.00 to 7.00.
Regarding `O[C@H]1CC[C@H](Nc2nc(Nc3ccc(C#Cc4cc(-c5ccn[nH]5)ccn4)cc3)ncc2-c2ccccn2)CC1` [UNC4360A], the negative logarithm of the IC50 (pIC50) is 6.00 to 7.00.
Turning to `O[C@H]1CC[C@H](Nc2nc(Nc3ccc(C#Cc4cc(-c5cccnc5)ccn4)cc3)ncc2-c2ccccn2)CC1` [UNC4361A], the pIC50 was 6.00 to 7.00.
Same read-out and setting: with `O[C@H]1CC[C@H](Nc2nc(Nc3ccc(C#Cc4cc(-c5cncnc5)ccn4)cc3)ncc2-c2ccccn2)CC1` [UNC4362A] the figure was 7.00 to 8.00; with `O[C@H]1CC[C@H](Nc2nc(Nc3ccc(C#Cc4cc(-c5ccncc5)ccn4)cc3)ncc2-c2ccccn2)CC1` [UNC4363A], 7.00 to 8.00.
Same read-out and setting: then `CC(C)Nc1ccnc(C#Cc2ccc(Nc3ncc(-c4ccccn4)c(N[C@H]4CC[C@H](O)CC4)n3)cc2)c1` [UNC4364A], with 7.00 to 8.00; and `O[C@H]1CC[C@H](Nc2nc(Nc3ccc(C#Cc4cc(Nc5ncco5)ccn4)cc3)ncc2-c2ccccn2)CC1` [UNC4392A], with 6.00 to 7.00.

The test is the same for the next values; noted with them: Table 5; read-out: Mer IC50.
Take `COc1cccc(Oc2ccnc(C#Cc3ccc(Nc4ncc(-c5ccccn5)c(N[C@H]5CC[C@H](O)CC5)n4)cc3)c2)c1` [UNC4393A]: the pIC50 is 4.52 to 6.00.
On the same count and under the same terms, then `CC(C)Oc1ccnc(C#Cc2ccc(Nc3ncc(-c4ccccn4)c(N[C@H]4CC[C@H](O)CC4)n3)cc2)c1` [UNC4394A], with 6.00 to 7.00.

A further test concerns the target T2, Axl (Homo sapiens, UniProt P30530).
T2 sequence (P30530 26-894): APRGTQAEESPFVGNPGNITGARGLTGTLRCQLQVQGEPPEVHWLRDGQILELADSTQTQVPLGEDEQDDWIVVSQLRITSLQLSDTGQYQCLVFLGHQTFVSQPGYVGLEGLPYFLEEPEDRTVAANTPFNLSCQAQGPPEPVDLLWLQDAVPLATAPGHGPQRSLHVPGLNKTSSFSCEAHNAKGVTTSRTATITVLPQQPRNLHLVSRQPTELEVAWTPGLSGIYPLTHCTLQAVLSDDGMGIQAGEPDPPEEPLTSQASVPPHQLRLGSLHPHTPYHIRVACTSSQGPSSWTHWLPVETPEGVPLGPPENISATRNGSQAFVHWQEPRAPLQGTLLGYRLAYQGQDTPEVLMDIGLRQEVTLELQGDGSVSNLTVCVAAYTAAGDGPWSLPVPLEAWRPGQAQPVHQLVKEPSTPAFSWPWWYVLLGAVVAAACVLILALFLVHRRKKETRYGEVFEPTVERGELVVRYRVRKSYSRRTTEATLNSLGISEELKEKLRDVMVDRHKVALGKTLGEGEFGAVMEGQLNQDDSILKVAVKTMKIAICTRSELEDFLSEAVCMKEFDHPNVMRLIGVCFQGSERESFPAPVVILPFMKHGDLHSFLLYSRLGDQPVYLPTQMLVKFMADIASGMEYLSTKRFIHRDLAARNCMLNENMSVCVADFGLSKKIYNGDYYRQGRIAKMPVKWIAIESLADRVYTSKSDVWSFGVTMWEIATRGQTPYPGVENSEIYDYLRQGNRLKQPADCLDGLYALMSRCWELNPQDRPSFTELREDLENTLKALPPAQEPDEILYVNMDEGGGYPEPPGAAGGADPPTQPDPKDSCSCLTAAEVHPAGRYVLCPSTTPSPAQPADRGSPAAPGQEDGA
The test is described as follows: Axl kinase inhibition IC50. The class given is biochemical. As to conditions: Table 2.
`CN1CCC(c2ccc(Nc3ncc(-c4ccccn4)c(N[C@H]4CC[C@H](O)CC4)n3)cc2)CC1` [UNC5130A] had a pIC50 of 6.00 to 7.00.
`CN1CCCC(c2ccc(Nc3ncc(-c4ccccn4)c(N[C@H]4CC[C@H](O)CC4)n3)cc2)C1` (stereo partly drawn) [UNC5131A]: the pIC50 was 6.00 to 7.00.

Staying with this test, now noted: Table 3.
Take `Cc1cc(C#Cc2cc(NC(=O)C(C)C)ccn2)ccc1Nc1ncc(-c2ccc(CN3CCN(C)CC3)cc2)c(N[C@H]2CC[C@H](O)CC2)n1` [UNC4048A]: the pIC50 is 6.00 to 7.00.

Still in this test, the particulars now being: Table 4.
The molecule `O[C@H]1CC[C@H](Nc2nc(Nc3ccc(C#Cc4cc(-c5ncc[nH]5)ccn4)cc3)ncc2-c2ccccn2)CC1` [UNC4357A] gave a pIC50 of 4.52 to 6.00.
Same read-out and setting: with `O[C@H]1CC[C@H](Nc2nc(Nc3ccc(C#Cc4cc(-c5ccn[nH]5)ccn4)cc3)ncc2-c2ccccn2)CC1` [UNC4360A] the figure was 4.52 to 6.00; with `O[C@H]1CC[C@H](Nc2nc(Nc3ccc(C#Cc4cc(-c5cccnc5)ccn4)cc3)ncc2-c2ccccn2)CC1` [UNC4361A], 6.00 to 7.00.
Still for that read-out and setting: with `O[C@H]1CC[C@H](Nc2nc(Nc3ccc(C#Cc4cc(-c5cncnc5)ccn4)cc3)ncc2-c2ccccn2)CC1` [UNC4362A] the figure was 6.00 to 7.00; with `O[C@H]1CC[C@H](Nc2nc(Nc3ccc(C#Cc4cc(-c5ccncc5)ccn4)cc3)ncc2-c2ccccn2)CC1` [UNC4363A], 4.52 to 6.00; with `CC(C)Nc1ccnc(C#Cc2ccc(Nc3ncc(-c4ccccn4)c(N[C@H]4CC[C@H](O)CC4)n3)cc2)c1` [UNC4364A], 6.00 to 7.00.
The same measure, in the same setting: then `O[C@H]1CC[C@H](Nc2nc(Nc3ccc(C#Cc4cc(Nc5ncco5)ccn4)cc3)ncc2-c2ccccn2)CC1` [UNC4392A], with 4.52 to 6.00.

Staying with this test, now noted: Table 5.
`COc1cccc(Oc2ccnc(C#Cc3ccc(Nc4ncc(-c5ccccn5)c(N[C@H]5CC[C@H](O)CC5)n4)cc3)c2)c1` [UNC4393A] had a pIC50 of 4.52 to 6.00.
Still for that read-out and setting: with `CC(C)Oc1ccnc(C#Cc2ccc(Nc3ncc(-c4ccccn4)c(N[C@H]4CC[C@H](O)CC4)n3)cc2)c1` [UNC4394A] the figure was 6.00 to 7.00.

In a further test the target is T3, Tyro3 (Homo sapiens, UniProt Q06418).
T3 sequence (Q06418 41-890): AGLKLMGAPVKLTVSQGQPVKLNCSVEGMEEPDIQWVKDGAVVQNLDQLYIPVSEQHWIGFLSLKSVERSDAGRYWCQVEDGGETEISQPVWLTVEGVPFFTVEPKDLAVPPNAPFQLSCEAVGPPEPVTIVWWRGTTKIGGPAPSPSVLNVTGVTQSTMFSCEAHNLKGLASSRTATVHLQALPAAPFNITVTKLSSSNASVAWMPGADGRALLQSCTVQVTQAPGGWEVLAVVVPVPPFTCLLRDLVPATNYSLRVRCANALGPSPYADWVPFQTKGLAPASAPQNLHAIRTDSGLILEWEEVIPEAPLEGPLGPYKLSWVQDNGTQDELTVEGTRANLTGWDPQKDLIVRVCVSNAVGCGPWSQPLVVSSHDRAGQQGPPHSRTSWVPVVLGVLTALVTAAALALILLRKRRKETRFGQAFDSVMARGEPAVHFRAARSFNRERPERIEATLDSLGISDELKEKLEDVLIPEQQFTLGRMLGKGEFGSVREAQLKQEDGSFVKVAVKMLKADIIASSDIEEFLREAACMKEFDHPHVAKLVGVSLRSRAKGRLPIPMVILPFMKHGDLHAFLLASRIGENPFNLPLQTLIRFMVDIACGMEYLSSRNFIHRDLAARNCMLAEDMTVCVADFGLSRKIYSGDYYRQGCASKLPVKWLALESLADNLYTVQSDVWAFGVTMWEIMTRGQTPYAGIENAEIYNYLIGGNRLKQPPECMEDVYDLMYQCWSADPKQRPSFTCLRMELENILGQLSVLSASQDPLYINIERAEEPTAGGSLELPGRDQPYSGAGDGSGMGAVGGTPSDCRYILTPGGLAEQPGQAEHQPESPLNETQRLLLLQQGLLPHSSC
The test is described as follows: Tyro3 kinase inhibition IC50. Type of test: biochemical. As to conditions: Table 2; read-out: Tyro3 IC50.
Take `CN1CCC(c2ccc(Nc3ncc(-c4ccccn4)c(N[C@H]4CC[C@H](O)CC4)n3)cc2)CC1` [UNC5130A]: the pIC50 is 6.00 to 7.00.
Same read-out and setting: with `CN1CCCC(c2ccc(Nc3ncc(-c4ccccn4)c(N[C@H]4CC[C@H](O)CC4)n3)cc2)C1` (stereo partly drawn) [UNC5131A] the figure was 6.00 to 7.00.

The same test, now with this note: Table 3; read-out: Tyro3 IC50.
In the case of `Cc1cc(C#Cc2cc(NC(=O)C(C)C)ccn2)ccc1Nc1ncc(-c2ccc(CN3CCN(C)CC3)cc2)c(N[C@H]2CC[C@H](O)CC2)n1` [UNC4048A], the pIC50 was 7.00 to 8.00.

The same test, now with this note: Table 4; read-out: Tryo3 IC50.
In the case of `O[C@H]1CC[C@H](Nc2nc(Nc3ccc(C#Cc4cc(-c5ncc[nH]5)ccn4)cc3)ncc2-c2ccccn2)CC1` [UNC4357A], the pIC50 is 6.00 to 7.00.
The same measure, in the same setting: with `O[C@H]1CC[C@H](Nc2nc(Nc3ccc(C#Cc4cc(-c5ccn[nH]5)ccn4)cc3)ncc2-c2ccccn2)CC1` [UNC4360A] the figure was 6.00 to 7.00; with `O[C@H]1CC[C@H](Nc2nc(Nc3ccc(C#Cc4cc(-c5cccnc5)ccn4)cc3)ncc2-c2ccccn2)CC1` [UNC4361A], 6.00 to 7.00; with `O[C@H]1CC[C@H](Nc2nc(Nc3ccc(C#Cc4cc(-c5cncnc5)ccn4)cc3)ncc2-c2ccccn2)CC1` [UNC4362A], 6.00 to 7.00.
For the molecule `O[C@H]1CC[C@H](Nc2nc(Nc3ccc(C#Cc4cc(-c5ccncc5)ccn4)cc3)ncc2-c2ccccn2)CC1` [UNC4363A], the pIC50 was 6.00 to 7.00.
On the same count and under the same terms, with `CC(C)Nc1ccnc(C#Cc2ccc(Nc3ncc(-c4ccccn4)c(N[C@H]4CC[C@H](O)CC4)n3)cc2)c1` [UNC4364A] the figure was 7.00 to 8.00.
Still for that read-out and setting: then `O[C@H]1CC[C@H](Nc2nc(Nc3ccc(C#Cc4cc(Nc5ncco5)ccn4)cc3)ncc2-c2ccccn2)CC1` [UNC4392A], with 6.00 to 7.00.

The same test, now with this note: Table 5; read-out: Tryo3 IC50.
For the molecule `COc1cccc(Oc2ccnc(C#Cc3ccc(Nc4ncc(-c5ccccn5)c(N[C@H]5CC[C@H](O)CC5)n4)cc3)c2)c1` [UNC4393A], the pIC50 was 4.52 to 6.00.
Still for that read-out and setting: with `CC(C)Oc1ccnc(C#Cc2ccc(Nc3ncc(-c4ccccn4)c(N[C@H]4CC[C@H](O)CC4)n3)cc2)c1` [UNC4394A] the figure was 6.00 to 7.00.
